Results on eleven molecules are retold here after article PMC11314410, “Synthesis and Anti-Trypanosoma cruzi Activity of New Pyrazole-Thiadiazole Scaffolds” (Molecules, 2024).

Read-outs that look alike come from different tables or passages of the source.

For series [1], the system named is Trypomastigotes of T. cruzi (Dm28c-Luc). The series can be described thus: microbe, parasite or virus in culture. The class given is cell-based, Trypanosoma cruzi. The conditions noted are these: for IC50 / IC90: Trypanosoma cruzi, Dm28c-Luc, 24 h treatment; for IC50: 24 h, mean ± SD, read-out: Anti-T. cruzi Activity Trypomastigotes IC50; for IC90: read-out: Anti-T. cruzi Activity Trypomastigotes IC90. As for the experimental part: (§1) Genetically modified T. cruzi parasites, of clone Dm28c (TcI) expressing the firefly luciferase enzyme gene (Dm28c-Luc), were kindly provided by Dr. Cristina Henriques. T. cruzi Dm28c-Luc was maintained in a Vero cell cultivated in RPMI 1640 medium supplemented with 10% FBS. At 4-day post-infection (dpi), trypomastigotes, released in the cell culture supernatant, were harvested, followed by sedimentation (4000 rpm/20 min/4 °C) and quantification in a Neubauer chamber. Isolated trypomastigotes were used in the phenotypic screening assays as well as the antiparasitic activity in 3D cardiac microtissues, recovery (washout), and drug combination assays.
Drug screening was performed against clinically relevant forms of T. cruzi (amastigotes and trypomastigotes). Trypomastigotes, Dm28c-Luc (1 × 10^6 parasites/well), were added to 96-well plates and incubated with pyrazole-thiadiazole derivatives or Bz (100–0.41 µM). After 24 h of treatment (37 °C), the viability of the parasites was analyzed by adding a D-Luciferin solution (300 µg/mL) and luminescence was measured in the Glomax microplate reader.

For series [2], the system named is Intracellular amastigotes of T. cruzi (Dm28c-Luc). In words: microbe, parasite or virus in culture. The conditions noted are these: for IC50 / IC90: Trypanosoma cruzi; for IC90: read-out: Anti-T. cruzi Activity Intracellular Amastigotes IC90. The class given is cell-based, Trypanosoma cruzi. Here is the method:
as §1
The activity of pyrazole-thiadiazole derivatives against intracellular amastigotes was evaluated in 24 h-T. cruzi infected Vero cell cultures (1.5 × 10^4 cells/well) at a 10:1 ratio. The cultures were washed and incubated with serial dilutions of the derivatives or Bz (100–0.41 µM). Drug treatment was carried out for 72 h at 37 °C and the parasite viability was determined by luminescence readout after D-Luciferin substrate addition (300 µg/mL). The reading was performed in the Glomax reader. The cell cultures incubated with the culture medium containing dimethylsulphoxide (DMSO; concentration ≤ 1%) were used as the […]. The concentrations required to inhibit parasite viability by 50% (IC50) and 90% (IC90) were calculated using Prism GraphPad software (version 8.2.1). The selectivity index (SI), which measures the window between cytotoxicity (CC50) and anti-T. cruzi activity (IC50), was calculated as CC50/IC50. A minimum of 3 independent assays in duplicate were performed.

A short description of series [3]: Toxicity in mammalian cells (CellTiter Glo, 72 h). The conditions noted are these: African green monkey, Vero cells; 72 h, ATP levels; read-out: Cytotoxicity Vero Cells CC50. The class given is cell-based. As for the experimental part: Vero cell cultures grown in RPMI 1640 medium containing 10% fetal bovine serum (FBS) were cultured at 37 °C in a humidified atmosphere of 5% CO2 [82]. The cultures were used for drug screening assays and to obtain culture-derived trypomastigotes of T. cruzi.
Vero cells (1.5 ×10^4 cells/well), cultivated for 24 h at 37 °C in white 96-well plates with clear bottoms, were used to assess the toxicity of the pyrazole-thiadiazole derivatives (series 1 and 2). After washing, the cells were incubated for 72 h at 37 °C with different drug concentrations (500–1.95 μM). Cell viability was measured by adding 20 μL/well of CellTiter Glo reagent (Promega Corporation, Madison, WI, USA). This cell viability kit generates a luminescent signal proportional to the amount of ATP. The luminescence readout was performed using the Glomax Microplate Reader (Promega Corporation, Madison, WI, USA). Thus, the 50% cytotoxicity concentration (CC50), which reduces the cell viability by 50% (CC50), was calculated with Prism GraphPad software (version 8.2.1).
On the technique in general: Cellular ATP, detected with luciferase, serves as a proxy for viable cell number.

The subject of series [4] is T. cruzi (Dm28c-Luc) in Vero cell cultures. The series can be described thus: Washout (recovery) assay in T. cruzi-infected Vero cell cultures. The class given is cell-based, Trypanosoma cruzi. The conditions noted are these: washout assay, concentration and day not stated. Here is the method: The culture medium of the untreated and treated infected cultures was replaced every 3 or 4 days by a fresh medium with or without the pyrazole-thiadiazole derivatives. The presence of free viable parasites in the culture supernatant was monitored at each medium change by adding luciferin (300 µg/mL) followed by readout on a Glomax microplate reader. At the endpoint, culture supernatants and cell monolayers were evaluated for viable parasites. Positive and negative controls were performed using Bz (150 µM) and DMSO (≤1%), respectively. A minimum of 3 independent experimental runs were performed with 12 replicates.

The subject of another series is Leishmania. On the set-up: method as in PMID 32492796. The conditions noted are these: cited from earlier work.
Setting [5] is: Vero, read-out: Intracellular Amastigotes pIC50 (converted).
Where [6] appears, read: Dm28c-Luc in Vero cells, 72 h treatment, mean ± SD, read-out: Anti-T. cruzi Activity Intracellular Amastigotes IC50.
[7] abbreviates: Dm28c-Luc in Vero cells, 72 h treatment, mean ± SD.

For orientation: IC90 means the concentration needed for an effect of 90%. A word on the CC50: it is the concentration that lowers cell viability or growth by half. As usually defined, the melting point is the temperature of the solid-liquid transition. What is called EC50 is the concentration giving half of the maximal effect.

As to `Nc1nnc(-c2cnn(-c3ccc([N+](=O)[O-])cc3)c2)s1` [1k, 5-Amino-2-(1-(4-nitrophenyl)-1H-pyrazol-4-yl)-1,3,4-thiadiazole], the melting point lay in the range of 331 to 333 °C. In series [1], the “Trypomastigotes SI (CC50 of Vero cells/IC50 of trypomastigotes)” value (shortened to “Trypomastigotes SI”) is reported as greater than 5, the IC50 was greater than 100 µM and the IC90 was greater than 100 µM. Further, in series [2], the “Intracellular Amastigotes SI (CC50 of Vero cells/IC50 of intracellular amastigotes)” value (“Intracellular Amastigotes SI” below) is given as greater than 8.16. In series [2] (setting [5]), the IC50 was 58.9 µM. Further, the IC50 in series [2] (setting [6]) was determined as 58.3 ± 12.8 µM. Besides, the IC90 in series [2] (setting [7]) is greater than 70 µM. The CC50 at 72 h in series [3] is greater than 500 µM.
`Nc1nnc(-c2cnn(-c3ccc(Cl)cc3Cl)c2N)s1` [2c, 5-Amino-2-(5-amino-1-(2,4-dichlorophenyl)-1H-pyrazol-4-yl)-1,3,4-thiadiazole] came in with a melting point of 165 to 167 °C. For the same molecule, in series [1], the “Trypomastigotes SI” value is reported as greater than 5, the IC50 was greater than 100 µM and the IC90 was greater than 100 µM. The “Intracellular Amastigotes SI” value in series [2] is given as greater than 7.14. For the same molecule, the IC50 in series [2] (setting [5]) is greater than 70.8 µM. Also, in series [2] (setting [6]), the IC50 is greater than 70 µM. In addition, the concentration for an effect of 90% (IC90) in series [2] (setting [7]) is greater than 70 µM. For the same molecule, in series [3], the CC50 at 72 h is greater than 500 µM. In addition, the “Reduction of the release of trypomastigotes” value in series [4] was no less than 82%.
`Nc1nnc(-c2cnn(-c3ccc(F)cc3)c2)s1` [1g, 5-Amino-2-(1-(4-fluorophenyl)-1H-pyrazol-4-yl)-1,3,4-thiadiazole] gave a melting point of 335 to 337 °C. For the same molecule, in series [1], the “Trypomastigotes SI” value is listed as greater than 5, the IC50 was greater than 100 µM and the IC90 was greater than 100 µM. The “Intracellular Amastigotes SI” value in series [2] is on record as greater than 7.14. Further, in series [2] (setting [5]), the IC50 was greater than 70.8 µM. The IC50 in series [2] (setting [6]) was greater than 70 µM. Moreover, the IC90 in series [2] (setting [7]) was greater than 70 µM. Further, in series [3], the CC50 at 72 h is greater than 500 µM.
Consider `Nc1nnc(-c2cnn(-c3cccc(Cl)c3)c2)s1` [1b, 5-Amino-2-(1-(3-chlorophenyl)-1H-pyrazol-4-yl)-1,3,4-thiadiazole], for which the melting point lay in the range of 310 to 311 °C. In series [1], the “Trypomastigotes SI” value is greater than 5, the IC50 was greater than 100 µM and the IC90 was greater than 100 µM. In addition, the “Intracellular Amastigotes SI” value in series [2] is reported as greater than 7.73. In series [2] (setting [5]), the IC50 is 67.6 µM. Besides, the IC50 in series [2] (setting [6]) was 68.1 ± 2.99 µM. Further, the IC90 in series [2] (setting [7]) is greater than 70 µM. The 50% cytotoxic concentration (CC50) at 72 h in series [3] was greater than 500 µM.
`COc1ccc(-n2ncc(-c3nnc(N)s3)c2N)cc1` [2l, 5-Amino-2-(5-amino-1-(4-methoxyphenyl)-1H-pyrazol-4-yl)-1,3,4-thiadiazole] had a melting point of 303 to 305 °C. Also, in series [1], the “Trypomastigotes SI” value is reported as greater than 100, the IC50 is greater than 100 µM and the concentration for an effect of 90% (IC90) is greater than 100 µM. Besides, the “Intracellular Amastigotes SI” value in series [2] is reported as greater than 7.14. In series [2] (setting [5]), the IC50 was greater than 70.8 µM. In series [2] (setting [6]), the IC50 was greater than 70 µM. Moreover, the IC90 in series [2] (setting [7]) is greater than 70 µM. In addition, in series [3], the CC50 at 72 h was greater than 500 µM.
As for `C[C@@H]1[C@H](O)[C@@H](C)/C=C/C=C/C=C/C=C/C=C/C=C/C=C/[C@H](O[C@@H]2O[C@H](C)[C@@H](O)[C@H](N)[C@@H]2O)C[C@@H]2O[C@](O)(C[C@@H](O)C[C@@H](O)[C@H](O)CC[C@@H](O)C[C@@H](O)CC(=O)O[C@H]1C)C[C@H](O)[C@H]2C(=O)O` [amphotericin B], the EC50 in the series on Leishmania (2D model) was 0.0349 µM; in the series with Leishmania (3D macrophage cultures), 0.0523 µM. Also, in the series on Leishmania, the “Increase in the EC50 value of 3D vs 2D macrophage cultures” value is listed as 33%.
`Nc1nnc(-c2cnn(-c3ccc(Br)cc3)c2N)s1` [2i, 5-Amino-2-(5-amino-1-(4-bromophenyl)-1H-pyrazol-4-yl)-1,3,4-thiadiazole] came in with a melting point of 286 to 287 °C. Also, in series [1], the “Trypomastigotes SI” value is reported as greater than 5, the IC50 was greater than 100 µM and the concentration for an effect of 90% (IC90) was greater than 100 µM. Further, the “Intracellular Amastigotes SI” value in series [2] is greater than 7.58. The IC50 in series [2] (setting [5]) is 69.2 µM. Besides, the IC50 in series [2] (setting [6]) turned out to be 68.73 ± 0.05 µM. For the same molecule, the IC90 in series [2] (setting [7]) was greater than 70 µM. In addition, the CC50 at 72 h in series [3] was greater than 500 µM.
`Nc1nnc(-c2cnn(-c3cccc(F)c3)c2)s1` [1h, 5-Amino-2-(1-(3-fluorophenyl)-1H-pyrazol-4-yl)-1,3,4-thiadiazole] returned a melting point of 302 to 303 °C. In addition, in series [1], the “Trypomastigotes SI” value is reported as greater than 5, the IC50 was greater than 100 µM and the IC90 is greater than 100 µM. In series [2], the “Intracellular Amastigotes SI” value was greater than 7.86. In addition, the IC50 in series [2] (setting [5]) was 67.6 µM. Further, in series [2] (setting [6]), the IC50 is 66.8 ± 3.37 µM. Further, the concentration for an effect of 90% (IC90) in series [2] (setting [7]) is greater than 70 µM. Moreover, in series [3], the CC50 at 72 h was greater than 500 µM.
On to `Nc1nnc(-c2cnn(-c3ccc(Cl)c(Cl)c3)c2)s1` [1e, 5-Amino-2-(1-(3,4-dichlorophenyl)-1H-pyrazol-4-yl)-1,3,4-thiadiazole], for which the melting point lay in the range of 313 to 315 °C. In series [1], the “Trypomastigotes SI” value is recorded as greater than 5, the IC50 is greater than 100 µM and the IC90 is greater than 100 µM. In addition, the “Intracellular Amastigotes SI” value in series [2] is greater than 25.64. Also, the IC50 in series [2] (setting [5]) is 18.6 µM. For the same molecule, in series [2] (setting [6]), the IC50 stood at 18.8 ± 2.28 µM. Moreover, the 90% effect concentration (IC90) in series [2] (setting [7]) is 40.4 ± 13.3 µM. In addition, the half-maximal cytotoxic concentration (CC50) at 72 h in series [3] was greater than 500 µM.
`Nc1nnc(-c2cnn(-c3ccccc3)c2)s1` [1a, 5-Amino-2-(1-phenyl-1H-pyrazol-4-yl)-1,3,4-thiadiazole] displayed a melting point of 289 to 291 °C. Besides, in series [1], the “Trypomastigotes SI” value is on record as greater than 5, the IC50 is greater than 100 µM and the IC90 is greater than 100 µM. Also, the “Intracellular Amastigotes SI” value in series [2] is reported as greater than 7.49. Further, the IC50 in series [2] (setting [5]) was 69.2 µM. The IC50 in series [2] (setting [6]) was found to be 68.6 ± 1.03 µM. Further, in series [2] (setting [7]), the 90% effect concentration (IC90) was greater than 70 µM. Besides, the 50% cytotoxic concentration (CC50) at 72 h in series [3] is greater than 500 µM.
For `Nc1nnc(-c2cnn(-c3cccc(Br)c3)c2)s1` [1j, 5-Amino-2-(1-(3-bromophenyl)-1H-pyrazol-4-yl)-1,3,4-thiadiazole], the melting point lay in the range of 301 to 303 °C. In addition, in series [1], the “Trypomastigotes SI” value was greater than 5, the IC50 was greater than 100 µM and the IC90 is greater than 100 µM. Moreover, the “Intracellular Amastigotes SI” value in series [2] is on record as greater than 7.14. The IC50 in series [2] (setting [5]) is greater than 70.8 µM. For the same molecule, the IC50 in series [2] (setting [6]) is greater than 70 µM. Moreover, the IC90 in series [2] (setting [7]) was greater than 70 µM. For the same molecule, the CC50 at 72 h in series [3] is greater than 500 µM.
